Data: patent publication US20050014946A1, “Substituted amino ketone compounds” (priority 2001, published 2005)

Target: DP IV (Sus scrofa, UniProt P22411)
Test: Ki-determination, photometric DP IV assay with substrate GP-4-Nitroanilide
Format: biochemical
Details: competitor of GP-4-Nitroanilide, 3.5 nM DP IV, 30° C., pH 7.6 40 mM HEPES
Description: In order to measure the inhibition constant Ki a photometric assay was used The test compounds were measured as competitors of the standard substrate GP-4-Nitroanilide. Three different substrate concentrations (0.4 mM to 0.05 mM) were combined with 8 different competitor concentrations (0.5 mM to 2 μM). The reaction was started by addition of 3.5 nM DP IV. Experiments were carried out under standard conditions: 30° C. in pH 7.6 40 mM HEPES (Sigma-Aldrich) buffer. Nitroaniline production was monitored using a HTS 7000+microplate reader (PerkinElmer, Überlingen, Germany). The Ki-values were calculated via non-linear regression using the enzyme kinetic program Grafit 4.016 (Erithacus Ltd, UK).

Sequence of DP IV (P22411 whole entry): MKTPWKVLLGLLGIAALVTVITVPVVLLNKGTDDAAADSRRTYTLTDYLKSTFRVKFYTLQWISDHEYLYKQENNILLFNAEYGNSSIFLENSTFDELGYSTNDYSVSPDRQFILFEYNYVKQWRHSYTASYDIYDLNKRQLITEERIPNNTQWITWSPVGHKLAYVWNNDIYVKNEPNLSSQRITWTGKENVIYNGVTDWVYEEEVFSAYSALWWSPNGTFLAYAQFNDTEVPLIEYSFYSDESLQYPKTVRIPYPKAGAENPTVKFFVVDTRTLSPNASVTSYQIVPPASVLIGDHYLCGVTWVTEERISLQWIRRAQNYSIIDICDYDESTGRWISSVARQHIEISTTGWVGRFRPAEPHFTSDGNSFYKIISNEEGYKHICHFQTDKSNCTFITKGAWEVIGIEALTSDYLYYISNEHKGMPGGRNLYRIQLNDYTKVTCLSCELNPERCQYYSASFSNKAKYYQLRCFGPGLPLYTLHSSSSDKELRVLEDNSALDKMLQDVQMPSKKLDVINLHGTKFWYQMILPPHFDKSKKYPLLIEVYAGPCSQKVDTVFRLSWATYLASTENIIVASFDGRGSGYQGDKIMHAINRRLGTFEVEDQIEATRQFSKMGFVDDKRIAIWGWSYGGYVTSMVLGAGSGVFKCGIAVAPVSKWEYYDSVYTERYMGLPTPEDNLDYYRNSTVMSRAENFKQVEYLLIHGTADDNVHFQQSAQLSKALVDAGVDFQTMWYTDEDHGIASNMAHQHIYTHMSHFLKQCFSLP

Ki: 6.29 µM
Structure (SMILES): CCC(C)C(N)C(=O)C1CCCC1 (stereo not shown) [Example 1, 1-cyclopentyl-3-methyl-1-oxo-2-pentanaminium chloride]
